Publication PMC5843908, “Detection of PRMT1 inhibitors with stopped flow fluorescence” (Signal Transduction and Targeted Therapy, 2018)

Target: PRMT1 (Homo sapiens, UniProt Q99873)
Assay: Stopped flow fluorescence assay of PRMT1 inhibition ([PRMT1] 0.2 µM, [SAM] 3.5 µM, [H4FL] 0.4 µM);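 note: Stopped-flow traces of fluorescent H4FL peptide quenched on binding PRMT1 and restored on release, recorded 900 s, averaged over repeated drives and fit to a double-exponential model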
Format: biochemical
Text: To obtain the IC50 of a specific inhibitor, the relative activities of the enzyme in presence of different concentrations of the inhibitor are required (equation 1).[37] […] By adding different concentrations of the inhibitor to the reaction mixture, the relative activity of the enzyme can be obtained by normalizing K to the reaction rate without the inhibitor, and then calculate the IC50 value using equation 1. In our stopped flow fluorescence assay, the reaction rate of Phase I and Phase II can be obtained by approximating and deriving the double-exponential equation (equation 2). In Phase I, during a very short period of time (where t is small), the curve is nearly linear, and the exponential equation can be approximately described as F1 = a · (−k1) · t. Therefore, the derivation of F1 equals –k1∙a, which is the slope of Phase I. Similarly, the curve of Phase II at early stage can be approximately described as F2 = b · (−k2) · t. This derivation of F2 equals –k2∙b, which is the slope of Phase II. The slopes at various inhibitor concentrations, normalized to the slope in the absence of inhibitor, can be used to obtain the corresponding relative enzyme activity from which the potency value (IC50) of the inhibitor can be calculated with equation 1.
In a stopped flow fluorescence assay, the binding of H4FL to PRMT1 (or the PRMT1—cofactor complex) quenches the peptide fluorescence, while release of the peptide restores the fluorescence. […] The widths of the entrance and exit slits of the monochromator were set to 0.5 mm. An equal volume of samples from two syringes was driven into the observation cell for mixing measurements. The H4FL concentration in all experiments was 0.4 μM. […] The fluorescent signal was recorded for 900 seconds, with 10,000 data points in total. Data from four to six drives were collected and averaged for each curve.
After averaging the shot data, the association time courses were fitted to a double-exponential function (equation 2) using GraphPad Prism (CA, USA). […] F is the fluorescence intensity at time t, k1, and k2 are the rate constants for Phase I and Phase II, a is the amplitude of the fluorescence change for k1, and b is the amplitude of the fluorescence change for k2. Simulation curves based on the values of a, b, k1, and k2 at fixed c = 1 were produced using Matlab. The IC50 value of inhibitors is determined by equation 1 using GraphPad Prism (CA, USA).

Sequence of PRMT1 (Q99873 29-371): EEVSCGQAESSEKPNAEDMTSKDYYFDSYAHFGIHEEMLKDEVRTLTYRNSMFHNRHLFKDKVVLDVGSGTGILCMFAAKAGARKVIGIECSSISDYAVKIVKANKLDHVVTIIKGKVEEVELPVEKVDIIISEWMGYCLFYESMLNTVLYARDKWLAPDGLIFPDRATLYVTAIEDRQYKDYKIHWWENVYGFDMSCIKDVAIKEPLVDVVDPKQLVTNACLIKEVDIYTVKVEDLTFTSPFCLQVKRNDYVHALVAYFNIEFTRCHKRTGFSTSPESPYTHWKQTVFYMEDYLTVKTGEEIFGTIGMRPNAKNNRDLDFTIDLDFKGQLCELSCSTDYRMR

**Q.** What does the source list for `Nc1ncnc2c1ncn2[C@@H]1O[C@H](CSCC[C@H](N)C(=O)O)[C@@H](O)[C@H]1O` [SAH, S-adenosyl homocysteine]?
**A.** -b·k2 (slope of Phase II) ([SAH] 0.1 µM): 0.000677 ± 1.35e-06 s⁻¹; a (amplitude, Phase I) ([SAH] 0.1 µM): 0.2027 ± 4.00E-04; a·k1 (slope of Phase I) ([SAH] 0.1 µM): 0.0122 ± 4.9e-05 s⁻¹; b (amplitude, Phase II) ([SAH] 0.1 µM): -0.2201 ± 1.26E-04; k1 (rate constant, Phase I) ([SAH] 0.1 µM): 0.05995 ± 2.11E-04 s^-1; k2 (rate constant, Phase II) ([SAH] 0.1 µM): 0.003078 ± 5.86E-06 s^-1; -b·k2 (slope of Phase II) ([SAH] 0.25 µM): 0.000561 ± 1.3e-06 s⁻¹; a (amplitude, Phase I) ([SAH] 0.25 µM): 0.2214 ± 4.39E-04; a·k1 (slope of Phase I) ([SAH] 0.25 µM): 0.0144 ± 5.59e-05 s⁻¹; b (amplitude, Phase II) ([SAH] 0.25 µM): -0.2306 ± 1.33E-04; k1 (rate constant, Phase I) ([SAH] 0.25 µM): 0.06487 ± 2.18E-04 s^-1; k2 (rate constant, Phase II) ([SAH] 0.25 µM): 0.002434 ± 5.47E-06 s^-1; -b·k2 (slope of Phase II) ([SAH] 0.5 µM): 0.000352 ± 1.25e-06 s⁻¹; a (amplitude, Phase I) ([SAH] 0.5 µM): 0.2658 ± 3.49E-04; b (amplitude, Phase II) ([SAH] 0.5 µM): -0.2629 ± 3.89E-04; k1 (rate constant, Phase I) ([SAH] 0.5 µM): 0.06324 ± 1.36E-04 s^-1; k2 (rate constant, Phase II) ([SAH] 0.5 µM): 0.00134 ± 4.32E-06 s^-1; -b·k2 (slope of Phase II) ([SAH] 1 µM): 0.000234 ± 1.38e-06 s⁻¹; a (amplitude, Phase I) ([SAH] 1 µM): 0.2726 ± 3.65E-04; a·k1 (slope of Phase I) ([SAH] 1 µM): 0.0186 ± 4.67e-05 s⁻¹; b (amplitude, Phase II) ([SAH] 1 µM): -0.2134 ± 6.03E-04; k1 (rate constant, Phase I) ([SAH] 1 µM): 0.06815 ± 1.45E-04 s^-1; k2 (rate constant, Phase II) ([SAH] 1 µM): 0.001095 ± 5.70E-06 s^-1; -b·k2 (slope of Phase II) ([SAH] 2.5 µM): 0.00011 ± 2.16e-06 s⁻¹; a (amplitude, Phase I) ([SAH] 2.5 µM): 0.2961 ± 3.73E-04; a·k1 (slope of Phase I) ([SAH] 2.5 µM): 0.0213 ± 4.93e-05 s⁻¹; b (amplitude, Phase II) ([SAH] 2.5 µM): -0.1862 ± 2.16E-03; k1 (rate constant, Phase I) ([SAH] 2.5 µM): 0.07177 ± 1.40E-04 s^-1; k2 (rate constant, Phase II) ([SAH] 2.5 µM): 0.0005933 ± 9.36E-06 s^-1; -b·k2 (slope of Phase II) ([SAH] 5 µM): 5.14e-05 ± 8.08e-06 s⁻¹; a (amplitude, Phase I) ([SAH] 5 µM): 0.2962 ± 3.74E-04; b (amplitude, Phase II) ([SAH] 5 µM): -0.3000 ± 3.18E-02; k1 (rate constant, Phase I) ([SAH] 5 µM): 0.05757 ± 1.17E-04 s^-1; k2 (rate constant, Phase II) ([SAH] 5 µM): 0.0001714 ± 1.98E-05 s^-1; -b·k2 (slope of Phase II) ([SAH] 10 µM): 2.22e-05 ± 2.71e-05 s⁻¹; a (amplitude, Phase I) ([SAH] 10 µM): 0.2774 ± 5.02E-04; b (amplitude, Phase II) ([SAH] 10 µM): -0.2999 ± 2.24E-01; increasing trend of Phase II ([SAH] 10 µM): almost abolished; k1 (rate constant, Phase I) ([SAH] 10 µM): 0.05889 ± 1.70E-04 s^-1; k2 (rate constant, Phase II) ([SAH] 10 µM): 7.42e-05 ± 5.74e-05 s⁻¹

**Q.** Which “-b·k2 (slope of Phase II)” value ([sinefungin] 0.0375 µM) does the source give for `Nc1ncnc2c1ncn2[C@@H]1O[C@H](C[C@@H](N)CC[C@H](N)C(=O)O)[C@@H](O)[C@H]1O` [sinefungin] here?
**A.** 0.000574 ± 1.23e-06 s⁻¹

**Q.** What about the “a (amplitude, Phase I)” value ([sinefungin] 0.0375 µM) of the same compound?
**A.** 0.1645 ± 3.77E-04

**Q.** And the “a·k1 (slope of Phase I)” value ([sinefungin] 0.0375 µM)?
**A.** 0.0107 ± 4.96e-05 s⁻¹

**Q.** And the “b (amplitude, Phase II)” value ([sinefungin] 0.0375 µM)?
**A.** -0.1699 ± 1.17E-04

**Q.** What about the “k1 (rate constant, Phase I)” value ([sinefungin] 0.0375 µM) of the same compound?
**A.** 0.0653 ± 2.62E-04 s^-1

**Q.** And the “k2 (rate constant, Phase II)” value ([sinefungin] 0.0375 µM)?
**A.** 0.00338 ± 6.86e-06 s⁻¹

**Q.** And the “-b·k2 (slope of Phase II)” value ([sinefungin] 0.075 µM)?
**A.** 0.00042 ± 1.32e-06 s⁻¹

**Q.** What about the “a (amplitude, Phase I)” value ([sinefungin] 0.075 µM) of the same compound?
**A.** 0.2064 ± 3.83E-04

**Q.** And the “a·k1 (slope of Phase I)” value ([sinefungin] 0.075 µM)?
**A.** 0.0115 ± 4.27e-05 s⁻¹

**Q.** What about the “b (amplitude, Phase II)” value ([sinefungin] 0.075 µM) of the same compound?
**A.** -0.2170 ± 1.94E-04

**Q.** And the “k1 (rate constant, Phase I)” value ([sinefungin] 0.075 µM)?
**A.** 0.05564 ± 1.79E-04 s^-1

**Q.** What about the “k2 (rate constant, Phase II)” value ([sinefungin] 0.075 µM) of the same compound?
**A.** 0.00194 ± 5.83e-06 s⁻¹

**Q.** What about the “-b·k2 (slope of Phase II)” value ([sinefungin] 0.15 µM) of the same compound?
**A.** 0.000351 ± 1.48e-06 s⁻¹

**Q.** And the “a (amplitude, Phase I)” value ([sinefungin] 0.15 µM)?
**A.** 0.2215 ± 4.17E-04

**Q.** What about the “a·k1 (slope of Phase I)” value ([sinefungin] 0.15 µM) of the same compound?
**A.** 0.0126 ± 4.69e-05 s⁻¹

**Q.** What about the “b (amplitude, Phase II)” value ([sinefungin] 0.15 µM) of the same compound?
**A.** -0.2165 ± 3.17E-04

**Q.** What about the “k1 (rate constant, Phase I)” value ([sinefungin] 0.15 µM) of the same compound?
**A.** 0.05703 ± 1.83E-04 s^-1

**Q.** What about the “k2 (rate constant, Phase II)” value ([sinefungin] 0.15 µM) of the same compound?
**A.** 0.00162 ± 6.43e-06 s⁻¹

**Q.** What about the “-b·k2 (slope of Phase II)” value ([sinefungin] 0.3 µM) of the same compound?
**A.** 0.00021 ± 1.94e-06 s⁻¹

**Q.** And the “a (amplitude, Phase I)” value ([sinefungin] 0.3 µM)?
**A.** 0.2200 ± 4.51E-04

**Q.** And the “a·k1 (slope of Phase I)” value ([sinefungin] 0.3 µM)?
**A.** 0.0118 ± 4.79e-05 s⁻¹

**Q.** What about the “b (amplitude, Phase II)” value ([sinefungin] 0.3 µM) of the same compound?
**A.** -0.1711 ± 6.89E-04

**Q.** And the “k1 (rate constant, Phase I)” value ([sinefungin] 0.3 µM)?
**A.** 0.05374 ± 1.88E-04 s^-1

**Q.** And the “k2 (rate constant, Phase II)” value ([sinefungin] 0.3 µM)?
**A.** 0.00123 ± 1.02e-05 s⁻¹

**Q.** What about the “-b·k2 (slope of Phase II)” value ([sinefungin] 0.75 µM) of the same compound?
**A.** 0.000123 ± 2.15e-06 s⁻¹

**Q.** And the “a (amplitude, Phase I)” value ([sinefungin] 0.75 µM)?
**A.** 0.2668 ± 5.02E-04

**Q.** And the “a·k1 (slope of Phase I)” value ([sinefungin] 0.75 µM)?
**A.** 0.0149 ± 5.48e-05 s⁻¹

**Q.** And the “b (amplitude, Phase II)” value ([sinefungin] 0.75 µM)?
**A.** -0.1045 ± 8.19E-04

**Q.** What about the “k1 (rate constant, Phase I)” value ([sinefungin] 0.75 µM) of the same compound?
**A.** 0.05576 ± 1.77E-04 s^-1

**Q.** And the “k2 (rate constant, Phase II)” value ([sinefungin] 0.75 µM)?
**A.** 0.00118 ± 1.83e-05 s⁻¹

**Q.** And the “-b·k2 (slope of Phase II)” value ([sinefungin] 1.5 µM)?
**A.** 7.22e-05 ± 5.34e-06 s⁻¹

**Q.** What about the “a (amplitude, Phase I)” value ([sinefungin] 1.5 µM) of the same compound?
**A.** 0.287 ± 5.51E-04

**Q.** And the “a·k1 (slope of Phase I)” value ([sinefungin] 1.5 µM)?
**A.** 0.0164 ± 6.01e-05 s⁻¹

**Q.** And the “b (amplitude, Phase II)” value ([sinefungin] 1.5 µM)?
**A.** -0.1776 ± 8.27E-03

**Q.** And the “k1 (rate constant, Phase I)” value ([sinefungin] 1.5 µM)?
**A.** 0.05722 ± 1.79E-04 s^-1

**Q.** What about the “k2 (rate constant, Phase II)” value ([sinefungin] 1.5 µM) of the same compound?
**A.** 0.000406 ± 2.33e-05 s⁻¹

**Q.** What about the “-b·k2 (slope of Phase II)” value ([sinefungin] 3 µM) of the same compound?
**A.** 4.12e-05 ± 0.000152 s⁻¹

**Q.** And the “a (amplitude, Phase I)” value ([sinefungin] 3 µM)?
**A.** 0.2925 ± 5.44E-04

**Q.** And the “a·k1 (slope of Phase I)” value ([sinefungin] 3 µM)?
**A.** 0.0166 ± 5.83e-05 s⁻¹

**Q.** What about the “b (amplitude, Phase II)” value ([sinefungin] 3 µM) of the same compound?
**A.** -4.517

**Q.** What about the “k1 (rate constant, Phase I)” value ([sinefungin] 3 µM) of the same compound?
**A.** 0.05659 ± 1.69E-04 s^-1

**Q.** And the “k2 (rate constant, Phase II)” value ([sinefungin] 3 µM)?
**A.** 9.13e-06 ± 3.36e-05 s⁻¹

**Q.** And the “-b·k2 (slope of Phase II)” value ([sinefungin] 7.5 µM)?
**A.** 1.42e-05 ± 0.000372 s⁻¹

**Q.** What about the “a (amplitude, Phase I)” value ([sinefungin] 7.5 µM) of the same compound?
**A.** 0.2481 ± 5.15E-04

**Q.** And the “a·k1 (slope of Phase I)” value ([sinefungin] 7.5 µM)?
**A.** 0.0148 ± 5.77e-05 s⁻¹

**Q.** What about the “b (amplitude, Phase II)” value ([sinefungin] 7.5 µM) of the same compound?
**A.** -4.223

**Q.** And the “k1 (rate constant, Phase I)” value ([sinefungin] 7.5 µM)?
**A.** 0.05968 ± 1.97E-04 s^-1

**Q.** And the “k2 (rate constant, Phase II)” value ([sinefungin] 7.5 µM)?
**A.** 3.37e-06 ± 8.82e-05 s⁻¹

**Q.** And the “-b·k2 (slope of Phase II)” value ([sinefungin] 15 µM)?
**A.** 2.66e-06 ± 0.000274 s⁻¹

**Q.** And the “a (amplitude, Phase I)” value ([sinefungin] 15 µM)?
**A.** 0.2592 ± 5.43E-04

**Q.** What about the “a·k1 (slope of Phase I)” value ([sinefungin] 15 µM) of the same compound?
**A.** 0.0145 ± 5.77e-05 s⁻¹

**Q.** What about the “b (amplitude, Phase II)” value ([sinefungin] 15 µM) of the same compound?
**A.** -0.5239

**Q.** What about the “k1 (rate constant, Phase I)” value ([sinefungin] 15 µM) of the same compound?
**A.** 0.05599 ± 1.89E-04 s^-1

**Q.** And the “k2 (rate constant, Phase II)” value ([sinefungin] 15 µM)?
**A.** 5.08e-06 ± 0.000523 s⁻¹
